Reference: patent publication EP0908457B1, “3-(1,2-benzisothiazol- and isoxazol-5-Y1)-2,4(1H,3H)-pyrimidinedione or thione and 3-(1,2-benzisothiazol- and isoxazol-5-y1)-4(3H)-pyrimidinone or thione herbicidal agents” (BASF AKTIENGESELLSCHAFT, priority 1997, dated 1999)

Assays:
Format in all cases: in vivo
[1] = test system: Cyperus iria; experiment: Preemergence weed control under flooded paddy conditions, CYPIR (Rice Flatsedge); settings: flooded paddy; for CYPIR: preemergence weeds, herbicidal effect rating 0-9, three to four weeks after treatment; for herbicidal effect rating, CYPIR / CYPIR herbicidal rating: preemergence; on herbicidal effect rating, CYPIR: meaning of each grade not given here
[2] = test system: Cyperus serotinus, Rottb.; experiment: Preemergence weed control under flooded paddy conditions, CYPSE (Flatsedge); settings: for CYPSE: preemergence weeds, herbicidal effect rating 0-9, three to four weeks after treatment; for herbicidal effect rating, CYPSE / CYPSE herbicidal rating: preemergence; on herbicidal effect rating, CYPSE: meaning of each grade not given here
[3] = test system: Sagittaria pygmaea, L.; experiment: Preemergence weed control under flooded paddy conditions, SAGPY (Arrowhead (Pygmaea)); settings: flooded paddy; for SAGPY: preemergence weeds, herbicidal effect rating 0-9, three to four weeks after treatment; for herbicidal effect rating, SAGPY / SAGPY herbicidal rating: preemergence; on herbicidal effect rating, SAGPY: meaning of each grade not given here
[4] = test system: Monochoria vaginalis, Presl.; experiment: Preemergence weed control under flooded paddy conditions, MOOVA (Monochoria); settings: flooded paddy; for MOOVA: preemergence weeds, herbicidal effect rating 0-9, three to four weeks after treatment; for herbicidal effect rating, MOOVA / MOOVA herbicidal rating: preemergence; on herbicidal effect rating, MOOVA: meaning of each grade not given here
[5] = test system: Echinochloa oryzoides (Ard.) Fritsch.; experiment: Preemergence weed control under flooded paddy conditions, ECHORC (Watergrass (Calif.)); settings: flooded paddy; for ECHORC: preemergence weeds, herbicidal effect rating 0-9, three to four weeks after treatment; for herbicidal effect rating, ECHORC / ECHORC herbicidal rating: preemergence; on herbicidal effect rating, ECHORC: meaning of each grade not given here
[6] = Rate 0.2500 kg/ha, rated three to four weeks after treatment
[7] = Rate 0.0320 kg/ha, rated 3-4 weeks after treatment
[8] = Rate 0.0620 kg/ha, rated 3-4 weeks after treatment
[9] = Rate 0.1250 kg/ha, rated 3-4 weeks after treatment
[10] = Rate 0.2500 kg/ha, rated 3-4 weeks after treatment
[11] = 0.0320 kg/ha, rated three to four weeks after treatment
[12] = 0.0620 kg/ha, rated three to four weeks after treatment
[13] = 0.1250 kg/ha, rated three to four weeks after treatment
[14] = 0.2500 kg/ha, rated three to four weeks after treatment
[15] = Rate 0.0320 kg/ha, rated three to four weeks after treatment
[16] = Rate 0.0620 kg/ha, rated three to four weeks after treatment
[17] = Rate 0.1250 kg/ha, rated three to four weeks after treatment

Cn1c(C(F)(F)F)cc(=O)n(-c2ccc3snc(C(SCCCO)SCCCO)c3c2)c1=O [Example 424, 1,2-Benzisothiazole-3-carboxaldehyde, 5-[3,6-dihydro-3-methyl-2,6-dioxo-4-(trifluoromethyl)-1(2H)-pyrimidinyl]-, 3-[bis(3-hydroxypropyl)dithioacetal]]
CYPIR ([1]; 0.0320 kg/ha): 4.0
CYPIR ([1]; 0.0620 kg/ha): 5.0
CYPIR ([1]; 0.1250 kg/ha): 6.0
CYPIR ([1]; 0.2500 kg/ha): 7.0
CYPSE ([2]; 0.1250 kg/ha): 3.0
CYPSE ([2]; 0.2500 kg/ha): 3.0
SAGPY ([3]; 0.0320 kg/ha): 0.0
SAGPY ([3]; 0.0620 kg/ha): 0.0
SAGPY ([3]; 0.1250 kg/ha): 0.0
SAGPY ([3]; 0.2500 kg/ha): 0.0
MOOVA ([4]; 0.0320 kg/ha): 7.0
MOOVA ([4]; 0.0620 kg/ha): 9.0
MOOVA ([4]; 0.1250 kg/ha): 9.0
MOOVA ([4]; 0.2500 kg/ha): 9.0
ECHORC ([5]; 0.0320 kg/ha): 0.0
ECHORC ([5]; 0.0620 kg/ha): 0.0
ECHORC ([5]; 0.1250 kg/ha): 3.0
ECHORC ([5]; 0.2500 kg/ha): 3.0

CONC(=O)c1nsc2ccc(-n3c(=O)cc(C(F)(F)F)n(C)c3=O)cc12 [Example 403, 1,2-Benzisothiazole-3-carboxamide, 5-[3,6-dihydro-3-methyl-2,6-dioxo-4-(trifluoromethyl)-1(2H)-pyrimidinyl]-N-methoxy-]
CYPIR ([1]; 0.0320 kg/ha): 5.0
CYPIR ([1]; 0.0620 kg/ha): 6.0
CYPIR ([1]; 0.1250 kg/ha): 7.0
herbicidal effect rating, CYPIR [1, 6]: 9.0
CYPSE ([2]; 0.0320 kg/ha): 0.0
CYPSE ([2]; 0.0620 kg/ha): 0.0
CYPSE ([2]; 0.1250 kg/ha): 2.0
herbicidal effect rating, CYPSE [2, 6]: 4.0
SAGPY ([3]; 0.0320 kg/ha): 3.0
SAGPY ([3]; 0.0620 kg/ha): 9.0
SAGPY ([3]; 0.1250 kg/ha): 9.0
herbicidal effect rating, SAGPY [3, 6]: 9.0
MOOVA ([4]; 0.0320 kg/ha): 7.0
MOOVA ([4]; 0.0620 kg/ha): 6.0
MOOVA ([4]; 0.1250 kg/ha): 9.0
herbicidal effect rating, MOOVA [4, 6]: 9.0
ECHORC ([5]; 0.0320 kg/ha): 0.0
ECHORC ([5]; 0.0620 kg/ha): 2.0
ECHORC ([5]; 0.1250 kg/ha): 4.0
herbicidal effect rating, ECHORC [5, 6]: 4.0

CCOC(=O)C1CCC(OC(=O)COc2ccc(C)cc2-c2nsc3ccc(-n4c(=O)cc(C(F)(F)F)n(C)c4=O)cc23)CC1 (single isomer, unassigned; isomer b) [Example 525, Acetic acid, {{2-{5-[3,6-dihydro-3-methyl-2,6-dioxo-4-(trifluoromethyl)-1(2H)-pyrimidinyl)-1,2-benzisothiazol-3-yl}-p-tolyl}oxy}-, ester with ethyl 4-hydroxycyclohexanecarboxylate, isomer B]
herbicidal effect rating, CYPIR [1, 7]: 0.0
herbicidal effect rating, CYPIR [1, 8]: 2.0
herbicidal effect rating, CYPIR [1, 9]: 2.0
herbicidal effect rating, CYPIR [1, 10]: 4.0
herbicidal effect rating, CYPSE [2, 7]: 0.0
herbicidal effect rating, CYPSE [2, 8]: 0.0
herbicidal effect rating, CYPSE [2, 9]: 0.0
herbicidal effect rating, CYPSE [2, 10]: 0.0
herbicidal effect rating, SAGPY [3, 7]: 0.0
herbicidal effect rating, SAGPY [3, 8]: 0.0
herbicidal effect rating, SAGPY [3, 9]: 0.0
herbicidal effect rating, SAGPY [3, 10]: 0.0
herbicidal effect rating, MOOVA [4, 7]: 9.0
herbicidal effect rating, MOOVA [4, 8]: 9.0
herbicidal effect rating, MOOVA [4, 9]: 9.0
herbicidal effect rating, MOOVA [4, 10]: 9.0
herbicidal effect rating, ECHORC [5, 7]: 6.0
herbicidal effect rating, ECHORC [5, 8]: 7.0
herbicidal effect rating, ECHORC [5, 9]: 9.0
herbicidal effect rating, ECHORC [5, 10]: 9.0

2,4(1H,3H)-Pyrimidinedione, 3-[3-(hydroxymethyl)-1,2-benzisothiazol-5-yl]-1-methyl-6-(trifluoromethyl)-, chlorophenylacetate (ester) [Example 504]
CYPIR herbicidal rating [1, 11]: 4.0
CYPIR herbicidal rating [1, 12]: 7.0
CYPIR herbicidal rating [1, 13]: 9.0
CYPIR herbicidal rating [1, 14]: 9.0
CYPSE herbicidal rating [2, 11]: 0.0
CYPSE herbicidal rating [2, 12]: 0.0
CYPSE herbicidal rating [2, 13]: 0.0
SAGPY herbicidal rating [3, 11]: 0.0
SAGPY herbicidal rating [3, 14]: 7.0
MOOVA herbicidal rating [4, 11]: 6.0
MOOVA herbicidal rating [4, 12]: 8.0
MOOVA herbicidal rating [4, 13]: 9.0
MOOVA herbicidal rating [4, 14]: 9.0
ECHORC herbicidal rating [5, 11]: 2.0
ECHORC herbicidal rating [5, 12]: 3.0
ECHORC herbicidal rating [5, 13]: 6.0
ECHORC herbicidal rating [5, 14]: 7.0

C=CCC(c1nsc2ccc(-n3c(=O)cc(C(F)(F)F)n(C)c3=O)cc12)S(C)(=O)=O (stereo not drawn) [Example 602, 2,4(1H,3H)-Pyrimidinedione, 1-methyl-3-{3-[1-(methylsulfonyl)-3-butenyl]-1,2-benzisothiazol-5-yl}-6-(trifluoromethyl)-]
herbicidal effect rating, CYPIR [1, 15]: 3.0
herbicidal effect rating, CYPIR [1, 16]: 3.0
herbicidal effect rating, CYPIR [1, 17]: 5.0
herbicidal effect rating, CYPIR [1, 6]: 5.0
herbicidal effect rating, CYPSE [2, 16]: 0.0
herbicidal effect rating, CYPSE [2, 17]: 7.0
herbicidal effect rating, CYPSE [2, 6]: 9.0
herbicidal effect rating, SAGPY [3, 15]: 0.0
herbicidal effect rating, SAGPY [3, 16]: 0.0
herbicidal effect rating, SAGPY [3, 17]: 0.0
herbicidal effect rating, SAGPY [3, 6]: 3.0
herbicidal effect rating, MOOVA [4, 15]: 7.0
herbicidal effect rating, MOOVA [4, 16]: 7.0
herbicidal effect rating, MOOVA [4, 17]: 8.0
herbicidal effect rating, MOOVA [4, 6]: 9.0
herbicidal effect rating, ECHORC [5, 15]: 0.0
herbicidal effect rating, ECHORC [5, 16]: 5.0
herbicidal effect rating, ECHORC [5, 17]: 9.0
herbicidal effect rating, ECHORC [5, 6]: 9.0

CCS(=O)(=O)NC(=O)C(C)Oc1ccc(C)cc1-c1nsc2ccc(-n3c(=O)cc(C(F)(F)F)n(C)c3=O)cc12 (stereo not drawn) [Example 571, Propionamide, 2-{{2-{5-[3,6-dihydro-3-methyl-2,6-dioxo-4-(trifluoromethyl)-1(2H)-pyrimidinyl]-1,2-benzisothiazol-3-yl}-p-tolyl}oxy}-N-(ethylsulfonyl)]
herbicidal effect rating, CYPIR [1, 15]: 0.0
herbicidal effect rating, CYPIR [1, 16]: 3.0
herbicidal effect rating, CYPIR [1, 17]: 3.0
herbicidal effect rating, CYPIR [1, 6]: 9.0
herbicidal effect rating, CYPSE [2, 15]: 0.0
herbicidal effect rating, CYPSE [2, 16]: 0.0
herbicidal effect rating, CYPSE [2, 17]: 0.0
herbicidal effect rating, CYPSE [2, 6]: 0.0
herbicidal effect rating, SAGPY [3, 15]: 0.0
herbicidal effect rating, SAGPY [3, 16]: 0.0
herbicidal effect rating, SAGPY [3, 17]: 0.0
herbicidal effect rating, SAGPY [3, 6]: 0.0
herbicidal effect rating, MOOVA [4, 15]: 0.0
herbicidal effect rating, MOOVA [4, 16]: 6.0
herbicidal effect rating, MOOVA [4, 17]: 7.0
herbicidal effect rating, MOOVA [4, 6]: 9.0
herbicidal effect rating, ECHORC [5, 15]: 0.0
herbicidal effect rating, ECHORC [5, 16]: 2.0
herbicidal effect rating, ECHORC [5, 17]: 3.0
herbicidal effect rating, ECHORC [5, 6]: 6.0
